Results published in paper PMC10349806 (Nature Communications, 2023).
Where “and” joins values, the source holds several entries; their conditions need not be identical. Identical values can stand only once.

Key:
PfCRT variant E207R = experiment: CQ uptake assay, oocytes expressing E207R; format: cell-based, Plasmodium falciparum
Description: (§1) Site-directed mutagenesis of PfCRT^Dd2 was performed as described using the megaprimer method with overlap extension[21],[54]. The primer pairs used are listed in Supplementary Table 6. Please note that a codon-optimized and oocyte-adapted version of PfCRT^Dd2 was used[22] (Supplementary Fig. 16). The resulting DNA fragment was cloned into the SP64T expression vector and verified by sequencing.
(§2) Oocytes were obtained as described previously. Briefly, adult (>2 years old) female X. laevis frogs (NASCO) were anesthetized in a cooled solution of ethyl 3-amino benzoate methanesulfonate (0.1%, w/v), followed by a surgical removal of parts of the ovary. The ovary lobes were carefully dissected and small pieces of oocytes were incubated in Ca^2+-free ND96 buffer (96 mM NaCl, 2 mM KCl, 1 mM MgCl2 buffered with 5 mM HEPES/NaOH, pH 7.5) supplemented with collagenase D (0.1%, w/v; Roche), BSA (0.5%, w/v), and 9 mm Na2HPO4 at 18 °C for 14-16 h while gentle shaking. After incubation, the oocytes were carefully washed several times with ND96 buffer (96 mM NaCl, 2 mM KCl, 1.8 mM CaCl2, 1 mM MgCl2 buffered with 5 mM HEPES/NaOH, pH 7.5) supplemented with 100 mg l^−1 gentamycin). Defolliculated and healthy-looking stage V-VI oocytes were manually selected for RNA microinjection. The RNA was generated as following: The codon-optimized sequences of PfCRT variants were cloned into the pSP64T expression vector. After vector linearization using the restriction endonucleases BamHI or SalI (New England Biolabs), transcription was performed using the in vitro SP6 mMessage mMachine Kit (Ambion)[34]. The obtained RNA was kept at −80 °C and diluted with nuclease-free water to a concentration of 0.6 μg μl^−1. Precision-bore glass capillary tubes (3.5-inch glass capillaries; Drummond Scientific Co.) were pulled on a vertical puller (P-87 Flaming/Brown micropipette puller, Sutter Instrument Co.), graduated, and placed on a microinjector (Nanoject II Auto-Nanoliter Injector, Drummond Scientific Co.). 50 nl of nuclease-free water alone (control oocytes) or 50 nl of 0.6 μg μl^−1 RNA were injected under stereomicroscopic control. Injected oocytes were incubated for 46–72 h at 18 °C with twice-daily buffer changes before usage in experiments.
(§3) Drug uptake assays were performed as described previously[21],[22],[24],[34]. […] The direction of radio-labeled drug transport is here from the mostly acidic extracellular solution (pH 4.5 or 6.0, as indicated) into the oocyte cytosol (pH ∼ 7.2), which corresponds to the efflux of drug from the acidic digestive vacuole (pH 5.2) into the parasite cytoplasm (pH 7.2). The topology of PfCRT in the oolemma is such that both the N- and C-terminus face the extracellular milieu[3],[22]. In the parasite, the N- and C-terminus face the lumen of the digestive vacuole. CQ uptake kinetics were performed by incubating oocytes in ND96 buffer adjusted to a pH of 4.5, 5.0, 5.5, or 6.0 and supplemented with 50 nM [^3H]CQ and one of 7 different CQ concentrations (10 µM, 50 µM, 100 µM, 200 µM, 300 µM, 400 µM, 500 µM CQ). The reaction was stopped at the 60 min time point, which is in the linear uptake range[22],[34] (Supplementary Fig. 17). For determination of the amount of drug uptake for each oocyte, the reaction medium was removed and the oocytes were washed three times with 2 ml of ice-cold ND96 buffer. Each oocyte was individually transferred to a scintillation vial containing 5% sodium dodecyl sulfate (200 μl) for lysis. The radioactivity of each sample was measured using a liquid scintillation analyzer Tri-Carb 4910 TR (PerkinElmer). Oocytes that were injected with water instead of RNA were analyzed in parallel, representing the uptake of a drug by diffusion and/or endogenous permeation pathways. The resulting value represents the “background“ level of drug accumulation in oocytes (in-depth discussion in[22]). […]

PfCRT variant F268A = biological target: T1, PfCRT variant F268A (Plasmodium falciparum, UniProt Q9N623, A220S/F268A/I356T/K76T/M74I/N326S/N75E/Q271E/R371I); experiment: CQ uptake assay, oocytes expressing F268A; format: cell-based
T1 sequence (Q9N623 1-424 M74I/N75E/K76T/A220S/F268A/Q271E/N326S/I356T/R371I): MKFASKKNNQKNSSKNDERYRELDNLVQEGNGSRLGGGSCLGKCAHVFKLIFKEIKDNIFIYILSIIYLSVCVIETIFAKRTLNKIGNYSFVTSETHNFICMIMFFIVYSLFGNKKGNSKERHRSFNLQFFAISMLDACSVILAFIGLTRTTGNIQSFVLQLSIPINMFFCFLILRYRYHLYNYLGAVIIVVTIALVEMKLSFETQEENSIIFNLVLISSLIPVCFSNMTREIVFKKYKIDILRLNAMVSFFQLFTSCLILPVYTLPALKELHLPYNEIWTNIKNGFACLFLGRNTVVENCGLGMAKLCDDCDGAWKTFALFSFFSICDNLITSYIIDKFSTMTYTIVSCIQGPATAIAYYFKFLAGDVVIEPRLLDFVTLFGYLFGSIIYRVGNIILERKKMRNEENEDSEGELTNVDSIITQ
Description: as §1, §2
Drug uptake assays were performed as described previously[21],[22],[24],[34]. […] The direction of radio-labeled drug transport is here from the mostly acidic extracellular solution (pH 4.5 or 6.0, as indicated) into the oocyte cytosol (pH ∼ 7.2), which corresponds to the efflux of drug from the acidic digestive vacuole (pH 5.2) into the parasite cytoplasm (pH 7.2). The topology of PfCRT in the oolemma is such that both the N- and C-terminus face the extracellular milieu[3],[22]. In the parasite, the N- and C-terminus face the lumen of the digestive vacuole. CQ uptake kinetics were performed by incubating oocytes in ND96 buffer adjusted to a pH of 4.5, 5.0, 5.5, or 6.0 and supplemented with 50 nM [^3H]CQ and one of 7 different CQ concentrations (10 µM, 50 µM, 100 µM, 200 µM, 300 µM, 400 µM, 500 µM CQ). The reaction was stopped at the 60 min time point, which is in the linear uptake range[22],[34] (Supplementary Fig. 17). […] The radioactivity of each sample was measured using a liquid scintillation analyzer Tri-Carb 4910 TR (PerkinElmer). Oocytes that were injected with water instead of RNA were analyzed in parallel, representing the uptake of a drug by diffusion and/or endogenous permeation pathways. […]

PfCRT variant E207K/K80E = experiment: CQ uptake assay, oocytes expressing E207K/K80E; format: cell-based, Plasmodium falciparum
Description: as §1, §2
Drug uptake assays were performed as described previously[21],[22],[24],[34]. […] The radioactivity of each sample was measured using a liquid scintillation analyzer Tri-Carb 4910 TR (PerkinElmer). Oocytes that were injected with water instead of RNA were analyzed in parallel, representing the uptake of a drug by diffusion and/or endogenous permeation pathways. […]

PfCRT variant W280A = experiment: CQ uptake assay, oocytes expressing W280A; format: cell-based, Plasmodium falciparum
Description: as §1, §2, §3

PfCRT variant K80A = experiment: CQ uptake assay, oocytes expressing K80A; format: cell-based, Plasmodium falciparum
Description: as §1, §2, §3

[1] = E207R, 50 µM CQ, 1 h, mean ± SEM
[2] = F268A, 50 µM CQ, 1 h, mean ± SEM
[3] = pH 4.5, single replicates, Fig 1d left
[4] = pH 6.0, single replicates, Fig 1d left
[5] = E207K/K80E, 50 µM CQ, 1 h, mean ± SEM
[6] = pH 4.5, individual replicates (Fig 6a)
[7] = pH 6.0, individual replicates (Fig 6a)
[8] = W280A, 50 µM CQ, 1 h, mean ± SEM
[9] = K80A, 50 µM CQ, 1 h, mean ± SEM

CCN(CC)CCCC(C)Nc1ccnc2cc(Cl)ccc12 (stereo not drawn) [CQ, chloroquine]
Activity at pH 4.5 (PfCRT variant E207R; [1]): 2.23 ± 0.16 pmol h-1 oocyte-1 | Activity at pH 6.0 (PfCRT variant E207R; [1]): 2.69 ± 0.23 pmol h-1 oocyte-1 | R-value (PfCRT variant E207R; E207R, CQ transport at pH 4.5 / pH 6.0): 0.84 ± 0.04 | E207R transport activity pH 4.5 (PfCRT variant E207R; pH 4.5, individual replicates, Fig 6b): 2.49 pmol oocyte-1 h-1 and 2.35 pmol oocyte-1 h-1 and 1.85 pmol oocyte-1 h-1 | E207R transport activity pH 6.0 (PfCRT variant E207R; pH 6.0, individual replicates, Fig 6b): 3.24 pmol oocyte-1 h-1 and 2.53 pmol oocyte-1 h-1 and 2.29 pmol oocyte-1 h-1 | E207RR-value (PfCRT variant E207R; ratio of activity pH 4.5 / pH 6.0): 0.77 and 0.93 and 0.81 | Activity at pH 4.5 (PfCRT variant F268A; [2]): 1.06 ± 0.19 pmol h-1 oocyte-1 | Activity at pH 6.0 (PfCRT variant F268A; [2]): 2.93 ± 0.28 pmol h-1 oocyte-1 | R-value (PfCRT variant F268A; F268A, CQ transport at pH 4.5 / pH 6.0): 0.40 ± 0.10 | F268A transport activity pH 4.5 (PfCRT variant F268A; [3]): 0.75 pmol oocyte-1 h-1 and 1.37 pmol oocyte-1 h-1 and 0.63 pmol oocyte-1 h-1 and 1.50 pmol oocyte-1 h-1 | F268A transport activity pH 6.0 (PfCRT variant F268A; [4]): 3.49 pmol oocyte-1 h-1 and 2.31 pmol oocyte-1 h-1 and 3.48 pmol oocyte-1 h-1 and 2.45 pmol oocyte-1 h-1 | Activity at pH 4.5 (PfCRT variant E207K/K80E; [5]): 1.85 ± 0.84 pmol h-1 oocyte-1 | Activity at pH 6.0 (PfCRT variant E207K/K80E; [5]): 4.75 ± 0.91 pmol h-1 oocyte-1 | E207K/K80E transport activity pH 4.5 (PfCRT variant E207K/K80E; [6]): 3.47 pmol oocyte-1 h-1 and 1.46 pmol oocyte-1 h-1 and 0.63 pmol oocyte-1 h-1 | E207K/K80E transport activity pH 6.0 (PfCRT variant E207K/K80E; [7]): 6.4 pmol oocyte-1 h-1 and 4.59 pmol oocyte-1 h-1 and 3.25 pmol oocyte-1 h-1 | Activity at pH 4.5 (PfCRT variant W280A; [8]): 0.92 ± 0.11 pmol h-1 oocyte-1 | Activity at pH 6.0 (PfCRT variant W280A; [8]): 2.64 ± 0.28 pmol h-1 oocyte-1 | R-value (PfCRT variant W280A; W280A, CQ transport at pH 4.5 / pH 6.0): 0.35 ± 0.03 | W280A transport activity pH 4.5 (PfCRT variant W280A; [3]): 0.97 pmol oocyte-1 h-1 and 0.58 pmol oocyte-1 h-1 and 1.22 pmol oocyte-1 h-1 and 0.92 pmol oocyte-1 h-1 | W280A R-value (PfCRT variant W280A; pH 4.5 vs pH 6.0, Fig 1d left): 0.31 and 0.28 and 0.38 and 0.44 | W280A transport activity pH 6.0 (PfCRT variant W280A; [4]): 3.17 pmol oocyte-1 h-1 and 2.06 pmol oocyte-1 h-1 and 3.24 pmol oocyte-1 h-1 and 2.09 pmol oocyte-1 h-1 | Activity at pH 4.5 (PfCRT variant K80A; [9]): 1.71 ± 0.08 pmol h-1 oocyte-1 | Activity at pH 6.0 (PfCRT variant K80A; [9]): 2.26 ± 0.12 pmol h-1 oocyte-1 | R-value (PfCRT variant K80A; K80A, CQ transport at pH 4.5 / pH 6.0): 0.76 ± 0.04 | K80A transport activity pH 4.5 (PfCRT variant K80A; [6]): 1.97 pmol oocyte-1 h-1 and 1.67 pmol oocyte-1 h-1 and 1.57 pmol oocyte-1 h-1 and 1.62 pmol oocyte-1 h-1 | K80A transport activity pH 6.0 (PfCRT variant K80A; [7]): 2.59 pmol oocyte-1 h-1 and 1.89 pmol oocyte-1 h-1 and 2.31 pmol oocyte-1 h-1 and 2.26 pmol oocyte-1 h-1 | K80A R-value (PfCRT variant K80A; transport activity pH 4.5 relative to pH 6.0 (Fig 6a)): 0.76 and 0.88 and 0.68 and 0.72
